Measurements taken from patent US6440405B1, “Quaternary ammonium functionalized dendrimers and methods of use therefor” (priority 1999, dated 2002).

Legend:
[1] = tested on: recombinant E. coli strain TV 1048; assay: Bioluminescence method (light-off response) with recombinant E. coli strain TV 1048; format: cell-based; settings: at 5 min; by interpolation of bioluminescence against concentration curves
[2] = tested on: Staphylococcus aureus; settings: reported results; cited from earlier work

In the case of `CCCCCCCCCCCC[N+](C)(C)C.[Cl-]` [DTAC, n-dodecyltrimethyl ammonium chloride], the “EC50 (concentration causing a 50% reduction of the bioluminescence)” value [1] is listed as “about 2000 ppm” and the “effectiveness against S. aureus compared with D4ClNC12 (in words)” value [2] is listed as “Somewhat less effective”.
